Where no end group is shown, it is not given here.
How the values were obtained:
[1] = Binding of iodinated polypeptide hormones to immobilized IBP; conditions: 2 nM iodinated hormone; room temperature 3 h
Procedure: The specificity of the binding of IBP to insulin was determined by incubating iodinated calcitonin, parathyroid hormone or atrial naturiuretic peptide with immobilized IBP. The binding of insulin to IBP appears to be a specific process. The specific binding of the low molecular weight polypeptide hormones calcitonin, parathyroid hormone and atrial naturiuretic peptide is less than 1% of the level of the specific binding of insulin (Ins) to IBP. The insulin-binding peptide was immobilized in the bottom of 96-well microtitre plates. To the wells were then added 2 nM iodinated polypeptide hormones in the absence or presence of at least a 1000-fold excess of unlabeled hormone. Following incubation at room temperature for 3 h, the wells were washed, excised from the plate and ^125 I measured as described above. The specific binding of hormone to the wells is indicated, along with the binding as a percentage of the binding of insulin to the wells. The polypeptide hormones utilized are indicated on the abcissa: Cal, calcitonin; PTH, parathyroid hormone; ANP, atrial naturiuretic peptide; Ins, insulin.

insulin [2] = biological target: T1, insulin (Homo sapiens, UniProt P01308); assay: Binding of 125I-insulin to immobilized IBP in microtitre wells
Procedure: Insulin Binding Peptide, synthesized by OCS Laboratories, Inc., Denton, Tex., was immobilized in the wells of flexible, U-bottom 96-well polyvinyl chloride microtitre plates (Falcon, Becton Dickinson Labware). To each well was added 100 ul of the peptide (5 ug/ml in 0.1 M sodium carbonate, pH 9.6). The peptide was allowed to adsorb to the well overnight at 4° C. Unreacted sites in the wells were blocked with 150 ul of 1% ovalbumin (Sigma Chemical Co.) in 0.1M sodium carbonate, pH 9.6, for 1 h at room temperature. The wells were washed two times with phosphate-buffered saline (PBS) containing 0.1% BSA (Fraction V, Sigma Chemical Co.), and then incubated with ^125 I-insulin in PBS, 0.1% BSA, for 3 h at room temperature. The wells were then washed 3 times with PBS-0.1% BSA, and were then excised from the plate and counted in a gamma counter. Total binding of insulin to the IBP was determined with iodinated insulin alone. Nonspecific binding was determined in the presence of radiolabeled insulin plus 3 uM unlabeled insulin. Specific binding was calculated as the difference between total and nonspecific binding. All values are reported as specific binding, unless otherwise indicated. All determinations (both total and nonspecific) were performed in triplicate. Insulin was iodinated by the method of Chloramine T, as previously described (Gavin et al., Proc. Nat. Acad. Sci., Vol. 71, p. 84-88 (1974)).
The peptide was immobilized in the bottom of 96-well microtitre plates, and at zero time, 2 nM ^125 I-insulin, in the absence or presence of 3 uM unlabeled insulin, was added to each of the wells. At the indicated times, the wells were washed with cold PBS, the washed wells were cut from the dish and counted for radioactivity. The indicated data points are average values of specifically bound insulin, and the error bars indicate the range of the data. At 25° C., the binding attained equilibrium within 1.5 h, with a half-time of approximately 20 min. At 4° C., the binding process is slightly slower, requiring approximately 2 h to attain an equilibrium level of binding.
The peptide was immobilized in the bottom of 96-well microtitre plates, and ^125 I-insulin, in the absence or presence of 3 uM unlabeled insulin, was added to the wells. Following incubation at 25° C. for 3 h, the wells were washed, cut from the dish, and counted, as described above. The indicated data points of FIG. 2 are average values of specifically bound insulin, the error bars indicate the range of the data.

insulin [3] = biological target: T1, insulin; assay: Binding of 125I-insulin to various immobilized peptides; conditions: peptide immobilized from 5 ug/ml; 2 nM 125I-insulin
Procedure: The binding specificity of iodinated insulin for immobilized peptides was determined. Peptides of various sequences and sizes were immobilized in microtitre wells, as described in Example 1. The peptides utilized were IBP (CVEEAS) and a series of control peptide having the following designations and amino acid sequences: S28, TTHYQKG; S79, AQGHRPQDEG; S81, YGSLPQKAQGHRPQDEG; S82, THYGSLPQKAQGHRPQDEG; and EAE, FSWGAEGQR.
Peptides were dissolved in buffer at a concentration of 5 ug/ml, and immobilized in the wells of the microtitre plate. The immobilized peptides were then incubated with 2 nM ^125 I-insulin in the absence or presence of 3 uM unlabeled insulin, as described above. The specific binding of insulin to immobilized peptide is indicated, alone with the binding as a percentage of the binding of insulin to immobilized IBP. The peptides utilized are indicated on the abcissa. The respective relative binding of insulin (shown in FIG. 5) was IBP-100%, S28-0.3%, S79-1.5%, S81-0.6%, S82-0.2% and EAE-0.3%.

T1 sequence (P01308 25-54 limits assumed, species assumed): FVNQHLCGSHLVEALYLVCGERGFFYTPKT
T1 sequence (P01308 90-110 partner limits assumed, species assumed): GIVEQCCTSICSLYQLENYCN

atrial naturiuretic peptide
specific binding to IBP as percentage of the specific binding of insulin [1]: less than 1%

CVEEAS [IBP, NH2 -Cys-Val-Glu-Glu-Ala-Ser-COOH]
time to attain an equilibrium level of binding (insulin [2]; 4° C., 2 nM 125I-insulin): approximately 2 h
half-time of binding (insulin [2]; 25° C., 2 nM 125I-insulin): approximately 20 min
time for binding to attain equilibrium (insulin [2]; 25° C., 2 nM 125I-insulin): ≤ 1.5 h
Kd (insulin [2]; IBP immobilized on plastic surface, 125I-insulin, 25° C. for 3 h, read-out: Kd of insulin binding to immobilized IBP (Scatchard)): 3 nM

calcitonin
specific binding to IBP as percentage of the specific binding of insulin [1]: less than 1%

AQGHRPQDEG [S79, AQGHRPQDEG]
relative binding of insulin to immobilized peptide, as percentage of binding to immobilized IBP (insulin [3]): 1.5%

parathyroid hormone
specific binding to IBP as percentage of the specific binding of insulin [1]: less than 1%

TTHYQKG [S28, TTHYQKG]
relative binding of insulin to immobilized peptide, as percentage of binding to immobilized IBP (insulin [3]): 0.3%

THYGSLPQKAQGHRPQDEG [S82, THYGSLPQKAQGHRPQDEG]
relative binding of insulin to immobilized peptide, as percentage of binding to immobilized IBP (insulin [3]): 0.2%

FSWGAEGQR [EAE, FSWGAEGQR]
relative binding of insulin to immobilized peptide, as percentage of binding to immobilized IBP (insulin [3]): 0.3%

YGSLPQKAQGHRPQDEG [S81, YGSLPQKAQGHRPQDEG]
relative binding of insulin to immobilized peptide, as percentage of binding to immobilized IBP (insulin [3]): 0.6%
